These are literature values, as cited in US20240000730A1, “ANTIHISTAMINE SEMI-SOLID CHEWABLE GEL COMPOSITIONS AND METHODS OF MAKING AND USING THEREOF” (Seattle Gummy Company, priority 2021, published 2024).

For series [1] the following is noted: ITC measurements. (In ITC the heat of successive injections is recorded.)
The conditions of series [2]: ITC measurements. This is another data set of the same source.
For series [3] the following is noted: ITC measurements. This is another data set of the same source.

In the case of `O=C(O)COCCN1CCN(C(c2ccccc2)c2ccc(Cl)cc2)CC1` (stereo not drawn) [Cetirizine, cetirizine], the “association constant K(a) of the cetirizine-α-cyclodextrin complex” value in series [1] was 1434 ± 60 M⁻¹. Further, in series [2], the “association constant of the cetirizine-γ-cyclodextrin complex” value is reported as 1200±50 (−1). The “association constant K(a) of the cetirizine-β-cyclodextrin complex” value in series [3] is 5641 ± 358 M⁻¹.
